Measured values as given in patent publication US6355799B1, “Substituted benzene compounds, process for their preparation, and herbicidal and defoliant compositions containing them” (ISK Americas Incorporated, priority 1997, dated 2002).

Tests used:
Assay type in all cases: in vivo
[1] = tested on: redroot pigweed (Amaranthus retroflexus, AMARE); assay: Pre-emerge test, greenhouse herbicide activity screening; conditions: rated 14 days after application, 0 = no damage, 100 = complete death
How it was run: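 Compounds in acetone were track-sprayed at 187 l/ha, 15–1000 g ai/ha, onto sandy loam pots. Pre-emerge seeds were sown one day before spraying, with surface watering afterwards. Post-emerge plants were at the 2–3 leaf stage and sprayed with 0.25% v/v non-ionic surfactant. Injury was rated 0–100 at 14 days.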

[2] = tested on: barnyardgrass (Echinochloa crus-galli, ECHCG); assay: as above; conditions: rated 14 days after application, 0 = no damage, 100 = complete death
How it was run: (§1)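 Plants grown in 10 cm pots of sandy loam mix received acetone-dissolved compounds through a moving flat-fan nozzle. Doses ranged from 15 to 1000 g ai/ha. Pre-emerge pots were seeded one day earlier, post-emerge pots 8–21 days earlier. Fourteen days on, each pot was graded 0–100 for damage.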

[3] = tested on: green foxtail (Setaria viridis, SETVI); assay: as above; conditions: rated 14 days after application, 0 = no damage, 100 = complete death
How it was run: as §1

[4] = tested on: ivyleaf morningglory (Ipomoea hederacea, IPOHE); assay: as above; conditions: rated 14 days after application, 0 = no damage, 100 = complete death
How it was run: as §1

[5] = tested on: johnsongrass (Sorghum halepense, SORHA); assay: as above; conditions: rated 14 days after application, 0 = no damage, 100 = complete death
How it was run: as §1

[6] = tested on: lambsquarters (Chenopodium album, CHEAL); assay: as above; conditions: rated 14 days after application, 0 = no damage, 100 = complete death
How it was run: as §1

[7] = tested on: large crabgrass (Digitaria sanguinalis, DIGSA); assay: as above; conditions: rated 14 days after application, 0 = no damage, 100 = complete death
How it was run: as §1

[8] = tested on: sicklepod (Cassia obtusifolia, CASOB); assay: as above; conditions: rated 14 days after application, 0 = no damage, 100 = complete death
How it was run: as §1

[9] = tested on: velvetleaf (Abutilon theophrasti, ABUTH); assay: as above; conditions: rated 14 days after application, 0 = no damage, 100 = complete death
How it was run: as §1

[10] = tested on: field corn (Zea mays L., var. Dekalb 535, CORN); assay: Pre-emerge test, crop safety; conditions: rated 14 days after application, 0 = no damage, 100 = complete death
How it was run: (§2)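 Compounds in acetone were track-sprayed at 15-1000 g ai/ha (187 l/ha) on sandy loam pots: pre-emerge one day after seeding, post-emerge at 2-3 leaf stage with 0.25% v/v non-ionic surfactant. Phytotoxicity was rated 14 days later on a 0 (no damage) to 100 (complete death) scale.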

[11] = tested on: upland rice (Oryza sp., var. Tebonnet, RICE); assay: Pre-emerge test, crop safety; conditions: rated 14 days after application, 0 = no damage, 100 = complete death
How it was run: as §2

[12] = tested on: barnyardgrass (Echinochloa crus-galli, ECHCG); assay: Post-emerge test, greenhouse herbicide activity screening; conditions: post-emerge, 14 days after application, rating scale 0-100
How it was run: (§3)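 Sandy loam pots; pre-emerge: sown 1 d pre-spray, surface-watered after, then bottom-watered. Post-emerge: sown 8–21 d before, 2–3 leaf stage, + 0.25% v/v NIS, bottom-watered. Acetone, 187 l/ha track spray, 15–1000 g ai/ha. 0–100 injury score, day 14.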

[13] = tested on: common ragweed (Ambrosia artemisizfolia L., AMBEL); assay: as above; conditions: post-emerge, 14 days after application, rating scale 0-100
How it was run: as §3

[14] = tested on: green foxtail (Setaria viridis, SETVI); assay: as above; conditions: post-emerge, 14 days after application, rating scale 0-100
How it was run: as §3

[15] = tested on: ivyleaf morningglory (Ipomoea hederacea, IPOHE); assay: as above; conditions: post-emerge, 14 days after application, rating scale 0-100
How it was run: as §3

[16] = tested on: johnsongrass (Sorghum halepense, SORHA); assay: as above; conditions: post-emerge, 14 days after application, rating scale 0-100
How it was run: as §3

[17] = tested on: lambsquarters (Chenopodium album, CHEAL); assay: as above; conditions: post-emerge, 14 days after application, rating scale 0-100
How it was run: as §3

[18] = tested on: large crabgrass (Digitaria sanguinalis, DIGSA); assay: as above; conditions: post-emerge, 14 days after application, rating scale 0-100
How it was run: as §3

[19] = tested on: redroot pigweed (Amaranthus retroflexus, AMARE); assay: as above; conditions: post-emerge, 14 days after application, rating scale 0-100
How it was run: as §3

[20] = tested on: sicklepod (Cassia obtusifolia, CASOB); assay: as above; conditions: post-emerge, 14 days after application, rating scale 0-100
How it was run: as §3

[21] = tested on: velvetleaf (Abutilon theophrasti, ABUTH); assay: as above; conditions: post-emerge, 14 days after application, rating scale 0-100
How it was run: as §3

[22] = tested on: field corn (Zea mays L., var. Dekalb 535, CORN); assay: Post-emerge test, crop safety; conditions: post-emerge, 14 days after application, rating scale 0-100
How it was run: (§4)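 Each test used a mechanized track sprayer delivering 187 l/ha of acetone solution at 15–1000 g ai/ha. Post-emerge foliage at 2–3 leaves was treated with added 0.25% v/v non-ionic surfactant and bottom-watered only. Injury was assessed on day 14, where 100 means total kill.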

[23] = tested on: upland rice (Oryza sp., var. Tebonnet, RICE); assay: Post-emerge test, crop safety; conditions: post-emerge, 14 days after application, rating scale 0-100
How it was run: as §4

COc1c(Cl)cc(F)c(-n2c(=O)cc(C(F)(F)F)n(C)c2=O)c1NC(=O)c1cccc2ccccc12 [2-74]
Pre-emerge Herbicidal Activity, phytotoxicity rating (0-100), AMARE ([1]; 63 g ai/ha): 100 | Pre-emerge Herbicidal Activity, phytotoxicity rating (0-100), AMARE ([1]; 250 g ai/ha): 100 | Pre-emerge Herbicidal Activity, phytotoxicity rating (0-100), ECHCG ([2]; 63 g ai/ha): 0 | Pre-emerge Herbicidal Activity, phytotoxicity rating (0-100), ECHCG ([2]; 250 g ai/ha): 100 | Pre-emerge Herbicidal Activity, phytotoxicity rating (0-100), SETVI ([3]; 63 g ai/ha): 70 | Pre-emerge Herbicidal Activity, phytotoxicity rating (0-100), SETVI ([3]; 250 g ai/ha): 100 | Pre-emerge Herbicidal Activity, phytotoxicity rating (0-100), IPOHE ([4]; 63 g ai/ha): 0 | Pre-emerge Herbicidal Activity, phytotoxicity rating (0-100), IPOHE ([4]; 250 g ai/ha): 50 | Pre-emerge Herbicidal Activity, phytotoxicity rating (0-100), SORHA ([5]; 63 g ai/ha): 0 | Pre-emerge Herbicidal Activity, phytotoxicity rating (0-100), SORHA ([5]; 250 g ai/ha): 100 | Pre-emerge Herbicidal Activity, phytotoxicity rating (0-100), CHEAL ([6]; 63 g ai/ha): 100 | Pre-emerge Herbicidal Activity, phytotoxicity rating (0-100), CHEAL ([6]; 250 g ai/ha): 100 | Pre-emerge Herbicidal Activity, phytotoxicity rating (0-100), DIGSA ([7]; 63 g ai/ha): 20 | Pre-emerge Herbicidal Activity, phytotoxicity rating (0-100), DIGSA ([7]; 250 g ai/ha): 100 | Pre-emerge Herbicidal Activity, phytotoxicity rating (0-100), CASOB ([8]; 63 g ai/ha): 40 | Pre-emerge Herbicidal Activity, phytotoxicity rating (0-100), CASOB ([8]; 250 g ai/ha): 70 | Pre-emerge Herbicidal Activity, phytotoxicity rating (0-100), ABUTH ([9]; 63 g ai/ha): 100 | Pre-emerge Herbicidal Activity, phytotoxicity rating (0-100), ABUTH ([9]; 250 g ai/ha): 100 | Pre-emerge phytotoxicity rating (0-100), crop damage, CORN ([10]; 63 g ai/ha): 0 | Pre-emerge phytotoxicity rating (0-100), crop damage, CORN ([10]; 250 g ai/ha): 15 | Pre-emerge phytotoxicity rating (0-100), crop damage, RICE ([11]; 63 g ai/ha): 30 | Pre-emerge phytotoxicity rating (0-100), crop damage, RICE ([11]; 250 g ai/ha): 60 | phytotoxicity rating ECHCG ([12]; 63 g ai/ha): 0 | phytotoxicity rating ECHCG ([12]; 250 g ai/ha): 0 | phytotoxicity rating AMBEL ([13]; 63 g ai/ha): 70 | phytotoxicity rating AMBEL ([13]; 250 g ai/ha): 95 | phytotoxicity rating SETVI ([14]; 63 g ai/ha): 0 | phytotoxicity rating SETVI ([14]; 250 g ai/ha): 20 | phytotoxicity rating IPOHE ([15]; 63 g ai/ha): 60 | phytotoxicity rating IPOHE ([15]; 250 g ai/ha): 60 | phytotoxicity rating SORHA ([16]; 63 g ai/ha): 0 | phytotoxicity rating SORHA ([16]; 250 g ai/ha): 0 | phytotoxicity rating CHEAL ([17]; 63 g ai/ha): 70 | phytotoxicity rating CHEAL ([17]; 250 g ai/ha): 70 | phytotoxicity rating DIGSA ([18]; 63 g ai/ha): 0 | phytotoxicity rating DIGSA ([18]; 250 g ai/ha): 0 | phytotoxicity rating AMARE ([19]; 63 g ai/ha): 95 | phytotoxicity rating AMARE ([19]; 250 g ai/ha): 100 | phytotoxicity rating CASOB ([20]; 63 g ai/ha): 30 | phytotoxicity rating CASOB ([20]; 250 g ai/ha): 70 | phytotoxicity rating ABUTH ([21]; 63 g ai/ha): 100 | phytotoxicity rating ABUTH ([21]; 250 g ai/ha): 100 | phytotoxicity rating CORN ([22]; 63 g ai/ha): 0 | phytotoxicity rating CORN ([22]; 250 g ai/ha): 15 | phytotoxicity rating RICE ([23]; 63 g ai/ha): 25 | phytotoxicity rating RICE ([23]; 250 g ai/ha): 50
